Data on three compounds can be found in US7282512B2, “Cycloalkyl ketoamides derivatives useful as cathepsin K inhibitors” (SmithKline Beecham Corporation, priority 2002, dated 2007).

The target in one test is T1, rat cathepsin K (Rattus norvegicus, UniProt O35186).
T1 construct: The proform of cathepsin K was converted to mature cathepsin K by brief exposure to pH 4; made in house; host or cells: baculovirus; Trichoplusia ni High Five cells (virus raised in Sf-9)
T1 sequence (O35186 115-329): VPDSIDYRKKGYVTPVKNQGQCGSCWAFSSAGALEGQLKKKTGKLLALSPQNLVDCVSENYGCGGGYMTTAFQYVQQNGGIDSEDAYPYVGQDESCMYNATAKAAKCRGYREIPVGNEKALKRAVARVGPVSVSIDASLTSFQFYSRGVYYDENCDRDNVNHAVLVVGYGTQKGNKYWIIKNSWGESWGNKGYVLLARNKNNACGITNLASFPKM
The test is described as follows: cathepsin K inhibition assay, fluorogenic substrate Cbz-Phe-Arg-AMC, progress curve method. In kind it is biochemical. As to conditions: Table 2; rat recombinant enzyme, 10 μM substrate; read-out: rCat K Ki. On the procedure: (§1) All assays for cathepsin K were carried out with human and rat recombinant enzyme. Assays for cathepsins S & V were also carried out with human recombinant enzyme. Assays for human cathepsins B, H, and L were carried out with enzyme, purchased from Athens Research and Technology, Inc., prepared from human liver tissue. Standard assay conditions for the determination of kinetic constants used a fluorogenic peptide substrate, typically (5S,8S)-13-amino-5-benzyl-13-imino-3-methylene-N-(4-methyl-2-oxo-2H-chromen-7-yl)-6-oxo-1-phenyl-2-oxa-4,7,12-triazatridecane-8-carboxamide (Cbz-Phe-Arg-AMC), and were determined in 100 mM sodium acetate at pH 5.5 containing 10 mM dithiothreitol and 120 mM sodium chloride. A stock substrate solution of Cbz-Phe-Arg-AMC was prepared at a concentration of 50 mM in dimethyl sulfoxide. This substrate was diluted into the assay for a final substrate concentration of 10 μM in the rat cathepsin K, human cathepsin K, and human cathepsin B assays; a final substrate concentration of 5 μM in the human cathepsin L assay; and a final substrate concentration of 2 μM in the human cathepsin V assay.
All assays contained 10% dimethyl sulfoxide. […] All assays were conducted at 30° C. Product fluorescence (excitation at 360 nm; emission at 440 nm, (except cathepsin H which used excitation at 340 nm; emission at 420 nm)) was monitored with a PerSeptive Biosystems Cytofluor II fluorescence plate reader. Product progress curves were generated over 2.3 h monitoring the formation of 7-amino-4-methylcoumarin product (or β-naphthalamide for cathepsin H). […]
Protein Purification: Media (human and rat) were filtered through a Whatman 3 filter, and then loaded onto a 25 mL Poros HS II (26 mm×47 mm) cation exchange column equilibrated in 25 mM sodium acetate at pH 5.5 (equilibration buffer). The column was washed until the absorbance reached the baseline value, and then the protein was eluted with a linear gradient from 0-2 M sodium chloride in the equilibration buffer. Column fractions were analyzed by SDS-PAGE, N-terminal sequencing, and mass spectrometry. […]

The target of the next test is human cathepsin S (Homo sapiens, UniProt P25774). The test is described as follows: cathepsin S inhibition assay, fluorogenic substrate Cbz-Val-Val-Arg-AMC. In kind it is biochemical. As to conditions: Table 2; human recombinant enzyme, 10 μM substrate; read-out: hCat S Ki. The procedure:
as §1, with “assay. […]” for “assay.”
All assays contained 10% dimethyl sulfoxide. […] Product fluorescence (excitation at 360 nm; emission at 440 nm, (except cathepsin H which used excitation at 340 nm; emission at 420 nm)) was monitored with a PerSeptive Biosystems Cytofluor II fluorescence plate reader. […]
Potential inhibitors were evaluated using the progress curve method. […] For those compounds whose progress curves were linear, the enzymatic activity (RATE) was plotted against the concentration of test compound, including inhibitor concentration of zero ([I]=0), and the IC50 determined from a fit of equation 1 to the data, RATE=Vmax/(1+([I]/IC50)) (1) where Vmax is the best fit estimate of the maximal enzymatic activity. Ki values were calculated from IC50 values using equation 2 assuming a competitive model.

human cathepsin S, sequence (P25774 115-331): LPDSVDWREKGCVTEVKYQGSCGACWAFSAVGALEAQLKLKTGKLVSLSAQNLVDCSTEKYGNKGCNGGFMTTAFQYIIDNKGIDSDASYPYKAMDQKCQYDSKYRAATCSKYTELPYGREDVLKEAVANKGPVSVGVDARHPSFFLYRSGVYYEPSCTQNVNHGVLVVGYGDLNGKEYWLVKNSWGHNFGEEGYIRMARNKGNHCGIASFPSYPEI

For `CCCC[C@H](NC(=O)OC1(Cc2ccccc2)CCCC1)C(=O)C(=O)N[C@@H](C)C(=O)OCc1ccccc1` [Example 3, Benzyl (2S)-2-{[(3S)-3-({[(1-benzylcyclopentyl)oxy]carbonyl}amino)-2-oxoheptanoyl]amino}propanoate], the values for the inhibition constant (Ki) at rat cathepsin K and at human cathepsin S were more than 1 µM and 0.1 to 1 µM, respectively.

On to `CCCC[C@H](NC(=O)OCC1(Cc2ccc(F)cc2)CCC1)C(=O)C(=O)Nc1n[nH]c2cc(Cl)ccc12` [Example 15, [1-(4-fluorobenzyl)cyclobutyl]methyl(1S)-1-[[(6-chloro-1H-indazol-3-yl)amino](oxo)acetyl]pentylcarbamate], for which the values for the Ki at rat cathepsin K and on human cathepsin S were 0.01 to 0.1 µM and 0.001 to 0.01 µM, respectively.

On to `CCCC[C@H](NC(=O)OC1(c2nc3ccccc3s2)CCCC1)C(=O)C(=O)Nc1ccn[nH]1` [Example 17, 1-(1,3-Benzothiazol-2-yl)cyclopentyl(1S)-1-[oxo(1H-pyrazol-3-ylamino)acetyl]pentylcarbamate], for which the Ki at rat cathepsin K and at human cathepsin S was 0.01 to 0.1 µM in each case.

Broadly, the Ki is the equilibrium dissociation constant of an inhibitor or competing ligand from its target.
